Drawing on ChEMBL document CHEMBL1132859, “Role of the hydrophobic moiety of tumor promoters. Synthesis and activity of 2-alkylated benzolactams” (Bioorg Med Chem Lett, 2000), this text covers Ki and EC50 for four compounds.

pEC50, pKi: −log10 of the molar value.

Experiment [1] deals with Protein kinase C delta type (Homo sapiens, UniProt Q05655). Briefly: Binding affinity for human recombinant protein kinase C delta.
In the next experiment the test system is HL-60. As to the kind of experiment: Compound was evaluated for its effective dose against HL-60 cells. The experiment is classed as functional. The note with it: Homo sapiens, read-out: ED50 (the source's name).

Chain of Protein kinase C delta type (Q05655 whole entry): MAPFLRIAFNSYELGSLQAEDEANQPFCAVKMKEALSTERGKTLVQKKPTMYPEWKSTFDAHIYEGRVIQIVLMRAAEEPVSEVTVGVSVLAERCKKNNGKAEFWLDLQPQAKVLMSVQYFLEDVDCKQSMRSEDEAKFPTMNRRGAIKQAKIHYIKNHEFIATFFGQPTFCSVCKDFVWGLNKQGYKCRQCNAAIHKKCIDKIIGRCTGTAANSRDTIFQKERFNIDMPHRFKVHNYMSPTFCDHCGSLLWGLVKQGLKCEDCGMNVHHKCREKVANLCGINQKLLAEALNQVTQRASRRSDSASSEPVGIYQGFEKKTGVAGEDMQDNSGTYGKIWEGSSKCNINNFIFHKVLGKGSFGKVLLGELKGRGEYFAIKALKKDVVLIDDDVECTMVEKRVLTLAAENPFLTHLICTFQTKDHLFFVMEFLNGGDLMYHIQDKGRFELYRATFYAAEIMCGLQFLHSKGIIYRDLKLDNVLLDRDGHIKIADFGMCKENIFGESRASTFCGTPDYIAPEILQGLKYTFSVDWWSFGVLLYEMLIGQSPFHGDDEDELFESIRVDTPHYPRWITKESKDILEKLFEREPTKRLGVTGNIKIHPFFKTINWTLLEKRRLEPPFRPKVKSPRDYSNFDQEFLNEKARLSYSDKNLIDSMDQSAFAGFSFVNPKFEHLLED

In general, pKi refers to −log10 of the Ki, conventionally taken in molar units. With `CCCCCCCCCC[C@H]1C(=O)N[C@H](CO)Cc2ccccc2N1C`, the pKi in experiment [1] is 9.10.
As for `CCCCCCCCCCCC[C@H]1C(=O)N[C@H](CO)Cc2ccccc2N1C`, the pKi in experiment [1] was 9.10.
Still for that read-out and setting: as for `CCCCCCCCCCCCCC[C@H]1C(=O)N[C@H](CO)Cc2ccccc2N1C`, the figure is 9.10.
Regarding `CCCCCCCCCCCCCCCCCCCC[C@H]1C(=O)N[C@H](CO)Cc2ccccc2N1C`, the pEC50 in the experiment on HL-60 was 7.15. The pKi in experiment [1] is less than 6.00.
